Results as given in patent publication US7247634B2, “Rifamycin derivatives effective against drug-resistant microbes” (Cumbre Pharmaceuticals Inc., priority 2004, dated 2007).
Values after ≈ are worked out from the molar mass of the structure shown.

Columns and labels:
Assay type in all cases: cell-based
[1] = system: Staphylococcus epidermidis ATCC12228; assay: MIC, microbroth dilution (NCCLS); conditions: rifS strain, Cation-Adjusted Mueller-Hinton Broth, 37° C., read-out: Antimicrobial activity (MIC)
[2] = system: Staphylococcus aureus ATCC29213; assay: MIC, microbroth dilution (NCCLS); conditions: rifS strain, Cation-Adjusted Mueller-Hinton Broth, 37° C., read-out: Antimicrobial activity (MIC)
[3] = system: Staphylococcus aureus ATCC29213 rpoB^D417Y; assay: microbe, parasite or virus in culture; conditions: ATCC29213, read-out: Antimicrobial activity (MIC)
Method: (§1) Representative compounds were assayed for antimicrobial activity as follows: Minimum Inhibitory Concentrations (“MICs”) were determined by the microbroth dilution method as per NCCLS guidelines (National Committee for Clinical Laboratory Standards. 2000. Methods for dilution antimicrobial susceptibility tests for bacteria that grow aerobically, 5th ed. M7-A5. National Committee for Clinical Laboratory Standards, Wayne, Pa.), except that all growth incubations were conducted at 37° C. Bacterial cultures were tested in the following bacteriological media: S. aureus, S. epidermidis, and E. coli in Cation-Adjusted Mueller-Hinton Broth, S. pneumoniae in THY Broth supplemented with 1 mg/mL catalase under 5% CO2 atmosphere, S. pyogenes in THY Broth, E. faecalis in BHI Broth, H. influenzae in BHI Broth supplemented with 0.75 μL of 1 mg/mL NAD and 150 μL of 1 mg/ml hematin per 5 mL, and M. smegmatis in Middlebrook Broth plus ADC Enrichment.
(§2) S. aureus ATCC 29213 RpoB^H418Y is a rifampin-resistant strain with a mutation in RNA polymerase, the biological target of rifamycin antibiotics. […] S. aureus EN1252a gyrA^S84L grlA^S80F is a quinolone-resistant strain due to double mutations to DNA gyrase and topoisomerase IV, the two biological targets for quinolone antibiotics.

[4] = system: Staphylococcus aureus ATCC29213 rpoB^H418Y; assay: microbe, parasite or virus in culture; conditions: ATCC29213, read-out: Antimicrobial activity (MIC)
Method: as §1, §2

[5] = system: Staphylococcus aureus EN1252a gyrA^S84L grlA^S80F; assay: microbe, parasite or virus in culture; conditions: read-out: Antimicrobial activity (MIC)
Method: as §1, §2

[6] = system: Streptococcus pyogenes ATCC19615; assay: MIC, microbroth dilution (NCCLS); conditions: rifS strain, THY Broth, 37° C., read-out: Antimicrobial activity (MIC)
[7] = system: Enterococcus faecalis ATCC29212; assay: MIC, microbroth dilution (NCCLS); conditions: rifS strain, BHI Broth, 37° C., read-out: Antimicrobial activity (MIC)
[8] = system: Haemophilus influenzae ATCC10211; assay: MIC, microbroth dilution (NCCLS); conditions: rifS strain, BHI Broth with NAD and hematin, 37° C., read-out: Antimicrobial activity (MIC)
[9] = system: Mycobacterium smegmatis ATCC700084; assay: MIC, microbroth dilution (NCCLS); conditions: Mycolicibacterium smegmatis, rifS strain, Middlebrook Broth plus ADC Enrichment, 37° C., read-out: Antimicrobial activity (MIC)
[10] = system: Escherichia coli ATCC25922; assay: MIC, microbroth dilution (NCCLS); conditions: rifS strain, Cation-Adjusted Mueller-Hinton Broth, 37° C., read-out: Antimicrobial activity (MIC)
[11] = system: Streptococcus pneumoniae ATCC6303; assay: MIC, microbroth dilution (NCCLS); conditions: rifS strain, THY Broth with 1 mg/mL catalase, 5% CO2, 37° C., read-out: Antimicrobial activity (MIC)

| SMILES | MIC [1] [µg/mL] | MIC [2] [µg/mL] | MIC [3] [µg/mL] | MIC [4] [µg/mL] | MIC [5] [µg/mL] | MIC [6] [µg/mL] | MIC [7] [µg/mL] | MIC [8] [µg/mL] | MIC [9] [µg/mL] | MIC [10] [µg/mL] | MIC [11] [µg/mL] |
| --- | --- | --- | --- | --- | --- | --- | --- | --- | --- | --- | --- |
| COc1c(N2CCC(C3(N(C)C4CCN(C5=C6NC(=O)/C(C)=C\C=C\[C@H](C)[C@H](O)[C@@H](C)[C@@H](O)[C@@H](C)[C@H](OC(C)=O)[C@H](C)[C@@H](OC)/C=C/O[C@@]7(C)Oc8c(C)c(O)c(c(c8C7=O)C5=O)C6=O)CC4)CC3)C2)c(F)cc2c(=O)c(C(=O)O)cn(C3CC3)c12 (mixture of isomers) [Example 41] | 0.008 to 0.063 (≈ 0.00671 to 0.0528 µM) | 0.004 to 0.5 (≈ 0.00335 to 0.419 µM) | 0.06 to 32 (≈ 0.0503 to 26.8 µM) | 0.06 to 16 (≈ 0.0503 to 13.4 µM) | 0.004 to 0.5 (≈ 0.00335 to 0.419 µM) | 0.008 to 0.063 (≈ 0.00671 to 0.0528 µM) | 2 to 32 (≈ 1.68 to 26.8 µM) | 0.125 to 2 (≈ 0.105 to 1.68 µM) | 0.5 to 64 | 0.125 to 8 (≈ 0.105 to 6.71 µM) | 0.008 to 0.125 (≈ 0.00671 to 0.105 µM) |
| CO[C@H]1/C=C/O[C@@]2(C)Oc3c(C)c(O)c4c(c3C2=O)C(=O)C(N2CC(C(=O)NC3CCN(c5c(F)cc6c(=O)c(C(=O)O)cn(C7CC7)c6c5Cl)C3)C2)=C(NC(=O)/C(C)=C\C=C\[C@H](C)[C@H](O)[C@@H](C)[C@@H](O)[C@@H](C)[C@H](OC(C)=O)[C@@H]1C)C4=O (mixture of isomers) [Example 43, (R/S)-3-{3-[1-(3-Carboxy-8-chloro-1-cyclopropyl-6-fluoro-4-oxo-1,4-dihydroquinolin-7-yl)-pyrrolidin-3-ylcarbamoyl]-azetidin-1-yl}rifamycin S] | 0.008 to 0.063 (≈ 0.007 to 0.0551 µM) | 0.004 to 0.5 (≈ 0.0035 to 0.438 µM) | 0.06 to 32 (≈ 0.0525 to 28 µM) | 0.06 to 16 (≈ 0.0525 to 14 µM) | 0.004 to 0.5 (≈ 0.0035 to 0.438 µM) | 0.008 to 0.063 (≈ 0.007 to 0.0551 µM) | 2 to 32 (≈ 1.75 to 28 µM) | 0.125 to 2 (≈ 0.109 to 1.75 µM) | 0.5 to 64 | 0.125 to 8 (≈ 0.109 to 7 µM) | 0.008 to 0.125 (≈ 0.007 to 0.109 µM) |
| COc1c(N2CCC(NC(=O)C3CN(C4=C5NC(=O)/C(C)=C\C=C\[C@H](C)[C@H](O)[C@@H](C)[C@@H](O)[C@@H](C)[C@H](OC(C)=O)[C@H](C)[C@@H](OC)/C=C/O[C@@]6(C)Oc7c(C)c(O)c(c(c7C6=O)C4=O)C5=O)C3)C2)c(F)cc2c(=O)c(C(=O)O)cn(C3CC3)c12 (mixture of isomers) [Example 44, (R/S)-3-{3-[1-(3-Carboxy-1-cyclopropyl-6-fluoro-8-methoxy-4-oxo-1,4-dihydroquinolin-7-yl)-pyrrolidin-3-ylcarbamoyl]-azetidin-1-yl}rifamycin S] | 0.008 to 0.063 (≈ 0.00703 to 0.0554 µM) | 0.004 to 0.5 (≈ 0.00351 to 0.439 µM) | 0.06 to 32 (≈ 0.0527 to 28.1 µM) | 0.06 to 16 (≈ 0.0527 to 14.1 µM) | 0.004 to 0.5 (≈ 0.00351 to 0.439 µM) | 0.008 to 0.063 (≈ 0.00703 to 0.0554 µM) | 2 to 32 (≈ 1.76 to 28.1 µM) | 0.125 to 2 (≈ 0.11 to 1.76 µM) | 0.5 to 64 | 0.125 to 8 (≈ 0.11 to 7.03 µM) | 0.008 to 0.125 (≈ 0.00703 to 0.11 µM) |
| CO[C@H]1/C=C/O[C@@]2(C)Oc3c(C)c(O)c4c(c3C2=O)C(=O)C(N2CCC(C(=O)NC3CCN(c5c(F)cc6c(=O)c(C(=O)O)cn(C7CC7)c6c5Cl)C3)CC2)=C(NC(=O)/C(C)=C\C=C\[C@H](C)[C@H](O)[C@@H](C)[C@@H](O)[C@@H](C)[C@H](OC(C)=O)[C@@H]1C)C4=O (mixture of isomers) [Example 49, (R/S)-3-{4-[1-(3-Carboxy-8-chloro-1-cyclopropyl-6-fluoro-4-oxo-1,4-dihydroquinolin-7-yl)-pyrrolidin-3-ylcarbamoyl]-piperidin-1-yl}rifamycin S] | 0.008 to 0.063 (≈ 0.00683 to 0.0538 µM) | 0.004 to 0.5 (≈ 0.00342 to 0.427 µM) | 0.06 to 32 (≈ 0.0513 to 27.3 µM) | 0.06 to 16 (≈ 0.0513 to 13.7 µM) | 0.004 to 0.5 (≈ 0.00342 to 0.427 µM) | 0.008 to 0.063 (≈ 0.00683 to 0.0538 µM) | 2 to 32 (≈ 1.71 to 27.3 µM) | 0.125 to 2 (≈ 0.107 to 1.71 µM) | 0.5 to 64 | 0.125 to 8 (≈ 0.107 to 6.83 µM) | 0.008 to 0.125 (≈ 0.00683 to 0.107 µM) |
| COc1c(N2CCC(NC(=O)C3CCN(C4=C5NC(=O)/C(C)=C\C=C\[C@H](C)[C@H](O)[C@@H](C)[C@@H](O)[C@@H](C)[C@H](OC(C)=O)[C@H](C)[C@@H](OC)/C=C/O[C@@]6(C)Oc7c(C)c(O)c(c(c7C6=O)C4=O)C5=O)CC3)C2)c(F)cc2c(=O)c(C(=O)O)cn(C3CC3)c12 (mixture of isomers) [Example 50, (R/S)-3-{4-[1-(3-Carboxy-1-cyclopropyl-6-fluoro-8-methoxy-4-oxo-1,4-dihydroquinolin-7-yl)-pyrrolidin-3-ylcarbamoyl]-piperidin-1-yl}rifamycin S] | 0.008 to 0.063 (≈ 0.00686 to 0.054 µM) | 0.004 to 0.5 (≈ 0.00343 to 0.429 µM) | 0.06 to 32 (≈ 0.0514 to 27.4 µM) | 0.06 to 16 (≈ 0.0514 to 13.7 µM) | 0.004 to 0.5 (≈ 0.00343 to 0.429 µM) | 0.008 to 0.063 (≈ 0.00686 to 0.054 µM) | 2 to 32 (≈ 1.71 to 27.4 µM) | 0.125 to 2 (≈ 0.107 to 1.71 µM) | 0.5 to 64 | 0.125 to 8 (≈ 0.107 to 6.86 µM) | 0.008 to 0.125 (≈ 0.00686 to 0.107 µM) |
